Assay results published in patent publication US12180207B2 (ARRAY BIOPHARMA INC., priority 2018, dated 2024).
pIC50: −log10 of the molar value.

How the values were obtained:
[1] = molecular target: FGFR3 (SEQ ID NO: 5, amino acids 449-759) (Homo sapiens (Human), UniProt P22607); assay: LC/MS FGFR3 kobs assay (covalent protein modification); type: binding; settings: 500 nM FGFR3, 3 μM compound
Method in brief: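 Covalent modification of FGFR1 (aa 458-765) or FGFR3 (aa 449-759) followed over time; reactions quenched with 0.4% formic acid and analysed by Q-TOF LC/MS after deconvolution. Percent unmodified protein, normalized to DMSO controls, fit to exponential decay to give kobs; averaged where repeated.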

[2] = molecular target: recombinant human FGFR1 catalytic domain (amino acids 308-731) (Homo sapiens (Human), UniProt P11362); assay: FGFR1 enzyme activity assay (LanthaScreen TR-FRET); type: biochemical; settings: 20 min incubation at 22° C., average of multiple determinations if made, read-out: FGFR1 Enz FRET IC50
Method in brief: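 His-tagged FGFR1 kinase domain with 100 nM Alexa Fluor 647-poly-GT peptide and ATP in pH 7.5 HEPES/MgCl2 buffer with 2% DMSO, 20 min at 22 °C. Quenched with EDTA plus 2 nM Eu-PY20 antibody and read after 60 min. IC50 comes from a 4-parameter fit of percent of control.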

[3] = molecular target: phosphorylated FGFR3 (SEQ ID NO: 5, amino acids 449 to 759) (Homo sapiens (Human), UniProt P22607); assay: FGFR enzyme binding assay (HTRF tracer displacement), FGFR3; settings: 5 nM phosphorylated FGFR3, average of multiple determinations if made
Method in brief: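 Compounds were tested for displacement of a tracer from human FGFR kinase in a time-resolved FRET binding format. After 60 minutes at 22° C, signal was read at two wavelengths and converted to percent of control, normalised between untreated wells and 1 μM reference inhibitor.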

phosphorylated FGFR3 (SEQ ID NO: 5, amino acids 449 to 759), sequence (P22607 449-759): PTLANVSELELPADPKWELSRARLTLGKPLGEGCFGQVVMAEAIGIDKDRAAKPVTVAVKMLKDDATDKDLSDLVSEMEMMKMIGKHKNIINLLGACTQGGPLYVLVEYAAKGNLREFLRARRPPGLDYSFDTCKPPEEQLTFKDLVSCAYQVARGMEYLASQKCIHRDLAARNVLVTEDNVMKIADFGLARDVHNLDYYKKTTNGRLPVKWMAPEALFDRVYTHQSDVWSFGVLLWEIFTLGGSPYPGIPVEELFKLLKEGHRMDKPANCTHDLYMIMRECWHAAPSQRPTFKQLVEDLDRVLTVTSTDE
FGFR3 (SEQ ID NO: 5, amino acids 449-759), sequence (P22607 449-759): as above
recombinant human FGFR1 catalytic domain (amino acids 308-731), sequence (P11362 other isoform, or with tags, fused parts or gaps): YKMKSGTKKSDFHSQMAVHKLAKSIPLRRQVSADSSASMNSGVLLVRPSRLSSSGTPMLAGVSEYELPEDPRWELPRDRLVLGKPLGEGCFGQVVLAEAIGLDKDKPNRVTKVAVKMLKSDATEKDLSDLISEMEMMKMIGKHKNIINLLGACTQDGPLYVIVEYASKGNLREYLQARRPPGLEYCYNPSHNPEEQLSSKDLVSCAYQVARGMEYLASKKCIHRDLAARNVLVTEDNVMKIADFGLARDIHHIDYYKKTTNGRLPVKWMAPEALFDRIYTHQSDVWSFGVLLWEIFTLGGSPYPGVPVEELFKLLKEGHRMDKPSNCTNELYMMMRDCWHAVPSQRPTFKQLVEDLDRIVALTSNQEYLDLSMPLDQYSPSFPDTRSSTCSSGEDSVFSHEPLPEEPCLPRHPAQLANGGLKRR

SMILES | FGFR3 Enz kobs [1] | pIC50 [2] | pIC50 [3]
C=CC(=O)N1CC2(CCN(C(=O)N3CCC(n4cc(-c5cc(OC)c6c(C#N)cnn6c5)cn4)CC3)CC2)C1 [Example 6, 6-(1-(1-(2-acryloyl-2,7-diazaspiro[3.5]nonane-7-carbonyl)piperidin-4-yl)-1H-pyrazol-4-yl)-4-methoxypyrazolo[1,5-a]pyridine-3-carbonitrile] | 0.00902 min⁻¹ | 8.00 | 7.74
C=CC(=O)N1C[C@H]2CN(C(=O)N3CCC(n4cc(-c5cc(OC)c6c(C#N)cnn6c5)cn4)CC3)C[C@H]21 [Example 7, 6-(1-(1-((1S,5S)-6-acryloyl-3,6-diazabicyclo[3.2.0]heptane-3-carbonyl)piperidin-4-yl)-1H-pyrazol-4-yl)-4-methoxypyrazolo[1,5-a]pyridine-3-carbonitrile] | 0.00305 min⁻¹ | 7.74 | 8.05
C=CC(=O)N1CC2(CCN(C(=O)N3CCC(n4cc(-c5cc(OC)c6c(C#N)cnn6c5)cn4)CC3)C2)C1 [Example 8, 6-(1-(1-(2-acryloyl-2,6-diazaspiro[3.4]octane-6-carbonyl)piperidin-4-yl)-1H-pyrazol-4-yl)-4-methoxypyrazolo[1,5-a]pyridine-3-carbonitrile] | 0.01122 min⁻¹ | 7.74 | 8.10
C=CC(=O)Nc1ccc(CN2CCC(n3cc(-c4cc(OC)c5c(C#N)cnn5c4)cn3)CC2)cc1 [Example 9, N-(4-((4-(4-(3-cyano-4-methoxypyrazolo[1,5-a]pyridin-6-yl)-1H-pyrazol-1-yl)piperidin-1-yl)methyl)phenyl)acrylamide] | 0.02298 min⁻¹ | 7.49 | 8.30
C=CC(=O)N(C)c1ccc(CN2CCC(n3cc(-c4cc(OC)c5c(C#N)cnn5c4)cn3)CC2)cc1 [Example 10, N-(4-((4-(4-(3-cyano-4-methoxypyrazolo[1,5-a]pyridin-6-yl)-1H-pyrazol-1-yl)piperidin-1-yl)methyl)phenyl)-N-methylacrylamide] | 0.01566 min⁻¹ | 7.47 | 8.40
C=CC(=O)N1CCC(n2cc(-c3cc(OC)c4c(C#N)cnn4c3)cn2)CC1 [Example 11, 6-(1-(1-acryloylpiperidin-4-yl)-1H-pyrazol-4-yl)-4-methoxypyrazolo[1,5-a]pyridine-3-carbonitrile] | 0.00206 min⁻¹ | 7.66 | 7.60
C=CC(=O)N1CCC(F)(C(=O)N2CCC(n3cc(-c4cc(OC)c5c(C#N)cnn5c4)cn3)CC2)CC1 [Example 13, 6-(1-(1-(1-acryloyl-4-fluoropiperidine-4-carbonyl)piperidin-4-yl)-1H-pyrazol-4-yl)-4-methoxypyrazolo[1,5-a]pyridine-3-carbonitrile] | 0.00418 min⁻¹ | 8.00 | 7.41
C=CC(=O)N1CC(C(=O)N2CCC(n3cnc(-c4cc(OC)c5c(C#N)cnn5c4)c3)CC2)C1 [Example 98, 6-(1-(1-(1-acryloylazetidine-3-carbonyl)piperidin-4-yl)-1H-imidazol-4-yl)-4-methoxypyrazolo[1,5-a]pyridine-3-carbonitrile] | 0.01995 min⁻¹ | 7.66 | 7.72
C=CC(=O)N1CC(C(=O)N2CCC(c3ccc(-c4cc(OC)c5c(C#N)cnn5c4)cc3)CC2)C1 [Example 101, 6-(4-(1-(1-acryloylazetidine-3-carbonyl)piperidin-4-yl)phenyl)-4-methoxypyrazolo[1,5-a]pyridine-3-carbonitrile] | 0.01185 min⁻¹ | 7.89 | 8.52
C=CC(=O)N1CC(C)(C(=O)N2CCC(n3cc(-c4cc(OC)c5c(Cl)cnn5c4)cn3)CC2)C1 [Example 123, 1-(3-(4-(4-(3-chloro-4-methoxypyrazolo[1,5-a]pyridin-6-yl)-1H-pyrazol-1-yl)piperidine-1-carbonyl)-3-methylazetidin-1-yl)prop-2-en-1-one] | 0.01169 min⁻¹ | 7.40 | 7.66
C=CC(=O)N1CC(OC)(C(=O)N2CCC(n3cc(-c4cc(OC)c5c(Cl)cnn5c4)cn3)CC2)C1 [Example 124, 1-(3-(4-(4-(3-chloro-4-methoxypyrazolo[1,5-a]pyridin-6-yl)-1H-pyrazol-1-yl)piperidine-1-carbonyl)-3-methoxyazetidin-1-yl)prop-2-en-1-one] | 0.02484 min⁻¹ | 7.42 | 8.05
C=CC(=O)N1CC(C(=O)N2CCC(n3cc(-c4cc(OC5CCC5)c5c(C#N)cnn5c4)cn3)CC2)C1 [Example 125, 6-(1-(1-(1-acryloylazetidine-3-carbonyl)piperidin-4-yl)-1H-pyrazol-4-yl)-4-cyclobutoxypyrazolo[1,5-a]pyridine-3-carbonitrile] | 0.01842 min⁻¹ | 8.40 | 8.70
C=CC(=O)N1CC(C(=O)N2CCC(n3cc(-c4cc(OCC)c5c(C#N)cnn5c4)cn3)CC2)C1 [Example 126, 6-(1-(1-(1-acryloylazetidine-3-carbonyl)piperidin-4-yl)-1H-pyrazol-4-yl)-4-ethoxypyrazolo[1,5-a]pyridine-3-carbonitrile] | 0.01992 min⁻¹ | 7.89 | 7.96
C=CC(=O)N1CC(C(=O)N2CCC(n3cc(-c4cc(OC(C)C)c5c(C#N)cnn5c4)cn3)CC2)C1 [Example 127, 6-(1-(1-(1-acryloylazetidine-3-carbonyl)piperidin-4-yl)-1H-pyrazol-4-yl)-4-isopropoxypyrazolo[1,5-a]pyridine-3-carbonitrile] | 0.01654 min⁻¹ | 8.15 | 8.00
C=CC(=O)N1CC(C(=O)N2CCC(n3cc(-c4cc(OCC(C)C)c5c(C#N)cnn5c4)cn3)CC2)C1 [Example 128, 6-(1-(1-(1-acryloylazetidine-3-carbonyl)piperidin-4-yl)-1H-pyrazol-4-yl)-4-isobutoxypyrazolo[1,5-a]pyridine-3-carbonitrile] | 0.01702 min⁻¹ | 8.15 | 8.22
C=CC(=O)N1CC(C(=O)N2CCC(n3cc(-c4cc(C(C)C)c5c(C#N)cnn5c4)cn3)CC2)C1 [Example 129, 6-(1-(1-(1-acryloylazetidine-3-carbonyl)piperidin-4-yl)-1H-pyrazol-4-yl)-4-isopropylpyrazolo[1,5-a]pyridine-3-carbonitrile] | 0.01646 min⁻¹ | 7.85 | 7.47
C=CC(=O)N1CC(C(=O)N2CCC(n3cc(-c4cc(-c5ccc(NC(=O)C6CC6)cc5F)c5c(C#N)cnn5c4)cn3)CC2)C1 [Example 130, N-(4-(6-(1-(1-(1-acryloylazetidine-3-carbonyl)piperidin-4-yl)-1H-pyrazol-4-yl)-3-cyanopyrazolo[1,5-a]pyridin-4-yl)-3-fluorophenyl)cyclopropane-carboxamide] | 0.01127 min⁻¹ | 8.52 | 8.52
C=CC(=O)N1CC(C(=O)N2CCC(n3cc(-c4cc(-c5ccccc5F)c5c(C#N)cnn5c4)cn3)CC2)C1 [Example 131, 6-(1-(1-(1-acryloylazetidine-3-carbonyl)piperidin-4-yl)-1H-pyrazol-4-yl)-4-(2-fluorophenyl)pyrazolo[1,5-a]pyridine-3-carbonitrile] | 0.01762 min⁻¹ | 8.05 | 9.00
C=CC(=O)N1CC(CN2CCC(n3cc(-c4cc(OC)c5c(C#N)cnn5c4)cn3)CC2)C1 [Example 132, 6-(1-(1-((1-acryloylazetidin-3-yl)methyl)piperidin-4-yl)-1H-pyrazol-4-yl)-4-methoxypyrazolo[1,5-a]pyridine-3-carbonitrile] | 0.013 min⁻¹ | 7.85 | 8.15
COc1cc(-c2cnn(C3CCN(C(=O)C4CN(C(=O)/C=C/CN(C)C)C4)CC3)c2)cn2ncc(C#N)c12 [Example 143, (E)-6-(1-(1-(1-(4-(dimethylamino)but-2-enoyl)azetidine-3-carbonyl)piperidin-4-yl)-1H-pyrazol-4-yl)-4-methoxypyrazolo [1,5-a]pyridine-3-carbonitrile] | 0.02052 min⁻¹ | 8.00 | 8.70
COc1cc(-c2cnn(C3CCN(C(=O)C4CN(C(=O)/C=C/CN5CCCCC5)C4)CC3)c2)cn2ncc(C#N)c12 [Example 145, (E)-4-methoxy-6-(1-(1-(1-(4-(piperidin-1-yl)but-2-enoyl)azetidine-3-carbonyl)piperidin-4-yl)-1H-pyrazol-4-yl)pyrazolo[1,5-a]pyridine-3-carbonitrile] | 0.01811 min⁻¹ | 8.40 | 8.40
COc1cc(-c2cnn(C3CCN(C(=O)C4CN(C(=O)/C=C/CN(C)C)C4)CC3)c2)cn2ncc(Cl)c12 [Example 174] | 0.02588 min⁻¹ | 7.80 | 7.92
COc1cc(-c2cnn(C3CCN(CC4CN(C(=O)/C=C/CN5CCCCC5)C4)CC3)c2)cn2ncc(C#N)c12 [Example 175, (E)-4-methoxy-6-(1-(1-((1-(4-(piperidin-1-yl)but-2-enoyl)azetidin-3-yl)methyl)piperidin-4-yl)-1H-pyrazol-4-yl)pyrazolo[1,5-a]pyridine-3-carbonitrile] | 0.01233 min⁻¹ | 8.40 | 8.10
